Reference: EP1750770B1, “USE OF ORGANO-SILICON COMPOUNDS FOR CO[…] TISSUES” (Exsymol, priority 2004, dated 2005)
Read-outs that look alike come from different tables or passages of the source. One block for each substance: values may come before it.

Columns and labels:
collagénase = experiment: Collagenase activity in tissue extracts of the dermal polyvinyl alcohol microsponge implant zone (Test 1); assay type: in vivo, rats Hairless; settings: once daily
Experimental: Une solution à 0,5 mg /ml de PZ-L Pro-L Leu-L Gly-L Pro-D Arg a été réalisée dans un tampon Tris-HCl (25 mM, pH 7,0; 2,5 mM de CaCl2). 0,5 ml de la solution de substrat ont été incubés à 37°C avec 200 µl d'extrait tissulaire pendant 2 h 30. A différents temps, 100 µl du milieu réactionnel ont été prélevés et ajoutés à 250 µl d'acide citrique à 0,5% (arrêt de la réaction) puis à 1,25 ml d'acétate d'éthyle. L'augmentation de densité optique (mD.O./min) et corrélée à la protéolyse du substrat a été suivie à 320 nm.
(§1) L'action quantitative et qualitative des deux composés organo-siliciés sur des rats Hairless et les altérations d'organisation de leur matrice extra-cellulaire (MEC) cutanée a été évaluée, et de manière régiosélective. En effet, un volume dermique de 0,5 cm^3 environ a été prélevé puis remplacé chirurgicalement par un dispositif médical implantable, que sont les microéponges en polyvinylalcool. Ces dernières sont usuellement utilisées pour la transplantation de cellules (Mooney D.J., J. Biomed. Mat Res(1995), vol.29, pp.959) car biocompatibles, de haute porosité et capables d'absorber 98% de leur volume.
(§2) La re-colonisation de l'implant (ou dispositif médical implantable) par le tissu dermique est alors observée sous l'effet des composés organo-siliciés. […] Les composés organo-siliciés sont administrés à raison d'une fois par jour pendant 2 mois.
(§3) L'évaluation quantitative a été réalisée via une mesure des cinétiques des marqueurs d'activité tissulaire dans la zone implantée. Les marqueurs suivis ont été des marqueurs biologiques témoignant de l'état du tissu, à savoir les enzymes "collagénase" et "élastase" qui rendent compte, avec leurs activités, du turn-over des protéines de la matrice extracellulaire, et l'enzyme "G6PDH" dont l'activité est un marqueur du niveau énergétique des cellules (équilibre redox cellulaire). L'évaluation qualitative a, elle, été réalisée avec le prélèvement chirurgical d'une partie de cet implant à différent temps de l'expérimentation. Après fixation, des coupes de 5 µm et une coloration H.E ou Trichrome-Masson ont été réalisées, ainsi qu'une analyse histologique de l'organisation du collagène de la MEC.

[1] = test system: glucose-6-phosphate déshydrogénase; experiment: Glucose-6-phosphate dehydrogenase activity in tissue extracts of the dermal implant zone (Test 1); assay type: in vivo, rats Hairless; settings: once daily
Experimental: 0,8 ml d'extrait tissulaire ont été incubés avec 20 µl de solution à 2,4 mM de NADP et à 24,4 mM de glucose 6-phosphate (G6P) en tampon phosphate (0,1M pH 7,4). L'augmentation de densité optique (mD.O./min) et corrélée à la réduction du substrat a été suivie à 340 nm à 25°C.
as §1, §2, §3

élastase = experiment: Elastase activity in tissue extracts of the dermal implant zone (Test 1); assay type: in vivo, rats Hairless; settings: once daily, SalSi-3OH intradermal, HyalSi-3OH topical cream
Experimental: Du N-succinyl-Ala-Ala-Pro-Leu p-nitroanilide en solution dans un tampon Tris-HCl (10mM pH 8) à 0,5 g/l à été incubé à 37°C avec 0,2 ml d'extrait tissulaire dans un volume final de 1,2 ml pendant 5 heures. L'augmentation de densité optique (mD.O./min) et corrélée à la protéolyse du substrat a été suivie à […].
as §1, §2, §3

[2] = test system: matrice extra-cellulaire (MEC) cutanée; experiment: Qualitative evaluation: implant appearance and histological analysis of collagen organisation of the ECM (Test 1); assay type: in vivo, rats Hairless; settings: once daily
Source text: as §1, §2, §3

[3] = immediately after the injection
[4] = test system: rides "patte d'oie" et/ou intersourcilières; settings: for échelle visuelle analogique, Front / échelle visuelle analogique, Pattes-d'oie: intradermal injections at J0, S1, S2, rated by volunteers; for amélioration du relief cutané: all injected sites
Source text: Les données obtenues à partir de l'échelle visuelle analogique ont fait l'objet d'une analyse de variance en mesures répétées sur le temps, suivie d'une analyse des contrastes.

[5] = week 1 post-implantation, SalSi-3OH 0,5% solution 0,2 ml intradermal, HyalSi-3OH 0,5% cream 100 mg topical

Substance: hyaluronate de monométhylsilanetriol [HyalSi-3OH]
Activité collagénase (collagénase; [5]): 3,4±0,3 mD.O./min/mg de prot. | Activité collagénase (collagénase; week 2 post-implantation): 5,9±0,7 mD.O./min/mg de prot. | Activité collagénase (collagénase; week 3 post-implantation): 12,0±1,3 mD.O./min/mg de prot. | Activité collagénase (collagénase; week 4 post-implantation): 14,1±3,1 mD.O./min/mg de prot. | Activité collagénase (collagénase; week 5 post-implantation): 7,3±1,6 mD.O./min/mg de prot. | Activité collagénase (collagénase; week 8 post-implantation): 3,5±1,4 mD.O./min/mg de prot. | Activité G6DPH ([1]; week 1 post-implantation): 8,2±1,9 mD.O./min/mg de prot. | Activité G6DPH ([1]; week 2 post-implantation): 13,8±1,5 mD.O./min/mg de prot. | Activité G6DPH ([1]; week 3 post-implantation): 25,1±4,6 mD.O./min/mg de prot. | Activité G6DPH ([1]; week 4 post-implantation): 46,8±7,6 mD.O./min/mg de prot. | Activité G6DPH ([1]; week 5 post-implantation): 37,5±6,2 mD.O./min/mg de prot. | Activité G6DPH ([1]; week 8 post-implantation): 7,3±2,4 mD.O./min/mg de prot. | Activité élastase (élastase; week 1 post-implantation): 3,4±0,5 mD.O./min/mg de prot. | Activité élastase (élastase; week 2 post-implantation): 7,8±2,2 mD.O./min/mg de prot. | Activité élastase (élastase; week 3 post-implantation): 10,5±2,9 mD.O./min/mg de prot. | Activité élastase (élastase; week 4 post-implantation): 9,4±2,4 mD.O./min/mg de prot. | Activité élastase (élastase; week 5 post-implantation): 5,6±1,1 mD.O./min/mg de prot. | Activité élastase (élastase; week 8 post-implantation): 2,4±0,9 mD.O./min/mg de prot. | Aspect implant + analyse histologique ([2]; week 1 post-implantation): début colonisation cellulaire | Aspect implant + analyse histologique ([2]; week 2 post-implantation): colonisation cellulaire (70 à 90%) + début formation MEC | Aspect implant + analyse histologique ([2]; week 3 post-implantation): formation MEC avec accumulation collagène non organisé | Aspect implant + analyse histologique ([2]; week 4 post-implantation): formation MEC avec présence collagène non organisé dans 30% des espaces de l'implant + collagène organisé dans 10% de l'implant | Aspect implant + analyse histologique ([2]; week 5 post-implantation): formation MEC avec présence collagène non organisé dans l'ensemble de l'implant + collagéne organisé dans 30% de l'implant | Aspect implant + analyse histologique ([2]; week 8 post-implantation): formation MEC dans l'ensemble de l'implant + collagène organisé dans 45% de l'implant

Activité collagénase (collagénase; [5]): 3,6±0,5 mD.O./min/mg de prot. | Activité collagénase (collagénase; week 2 post-implantation): 6,1±0,8 mD.O./min/mg de prot. | Activité collagénase (collagénase; week 3 post-implantation): 13±1,7 mD.O./min/mg de prot. | Activité collagénase (collagénase; week 4 post-implantation): 11,2±0,8 mD.O./min/mg de prot. | Activité collagénase (collagénase; week 5 post-implantation): 8,1±1,3 mD.O./min/mg de prot. | Activité collagénase (collagénase; week 8 post-implantation): 3,9±0,5 mD.O./min/mg de prot. | Activité G6DPH ([1]; week 1 post-implantation): 7,6±1,4 mD.O./min/mg de prot. | Activité G6DPH ([1]; week 2 post-implantation): 9,3±1,1 mD.O./min/mg de prot. | Activité G6DPH ([1]; week 3 post-implantation): 18,4±2,9 mD.O./min/mg de prot. | Activité G6DPH ([1]; week 4 post-implantation): 43,7±5,5 mD.O./min/mg de prot. | Activité G6DPH ([1]; week 5 post-implantation): 36,5±4,8 mD.O./min/mg de prot. | Activité G6DPH ([1]; week 8 post-implantation): 9,0±0,45 mD.O./min/mg de prot. | Activité élastase (élastase; week 1 post-implantation): 3,0±0,6 mD.O./min/mg de prot. | Activité élastase (élastase; week 2 post-implantation): 6,8±1,3 mD.O./min/mg de prot. | Activité élastase (élastase; week 3 post-implantation): 9,5±1,3 mD.O./min/mg de prot. | Activité élastase (élastase; week 4 post-implantation): 8,4±1,6 mD.O./min/mg de prot. | Activité élastase (élastase; week 5 post-implantation): 5,1±0,9 mD.O./min/mg de prot. | Activité élastase (élastase; week 8 post-implantation): 2,0±0,3 mD.O./min/mg de prot.
Substance: salicylate de monométhylsilanetriol [SalSi-3OH]
Aspect implant + analyse histologique ([2]; week 1 post-implantation): début colonisation cellulaire | Aspect implant + analyse histologique ([2]; week 2 post-implantation): colonisation cellulaire (70à 90%) + début formation MEC | Aspect implant + analyse histologique ([2]; week 3 post-implantation): formation MEC avec présence collagène non organisé | Aspect implant + analyse histologique ([2]; week 4 post-implantation): formation MEC avec présence collagène non organisé dans 20% des espaces de l'implant + collagène organisé dans 20% du l'implant | Aspect implant + analyse histologique ([2]; week 5 post-implantation): formation MEC avec présence collagène non organisédans l'ensemble de l'implant + collagène organisé dans 50% de l'implant | Aspect implant + analyse histologique ([2]; week 8 post-implantation): formation MEC dans l'ensemble de l'implant + collagène organisé dans 70% de l'implant | effet de comblement [3]: sans effet de comblement immédiatement après l'injection | échelle visuelle analogique, Front ([4]; S1): 18,67 ± 20,98 µm | échelle visuelle analogique, Pattes-d'oie ([4]; S1): 19,20 ± 19,14 µm | échelle visuelle analogique, Front ([4]; S2): 32,25 ± 23,23 µm | échelle visuelle analogique, Pattes-d'oie ([4]; S2): 31,23 ± 21,66 µm | échelle visuelle analogique, Front ([4]; S6): 35,33 ± 26,99 µm | échelle visuelle analogique, Pattes-d'oie ([4]; S6): 38,92 ± 25,97 µm | échelle visuelle analogique, Front ([4]; S12): 38,65 ± 25,85 µm | échelle visuelle analogique, Pattes-d'oie ([4]; S12): 41,63 ± 26,70 µm | échelle visuelle analogique, Front ([4]; S24): 39,55 ± 25,33 µm | échelle visuelle analogique, Pattes-d'oie ([4]; S24): 39,58 ± 24,89 µm | échelle visuelle analogique, Front ([4]; S36): 36,57 ± 24,55 µm | échelle visuelle analogique, Pattes-d'oie ([4]; S36): 39,52 ± 25,22 µm | échelle visuelle analogique, Front ([4]; S52): 34,58 ± 25,54 µm | échelle visuelle analogique, Pattes-d'oie ([4]; S52): 38,61 ± 26,10 µm | amélioration du relief cutané ([4]; at 6 months): se maintient | amélioration du relief cutané ([4]; at 12 months): régresse très légèrement | amélioration du relief cutané ([4]; mean, after 3 months): 40% | amélioration du relief cutané (significance) ([4]; one year after the first injection): significative sur tous les sites
